The values that follow come from patent US10723699B2 (Hyundai Pharm Co., Ltd., priority 2015, dated 2020).

The target in the test is T1, G protein-coupled receptor 119 (GPR-119) (Mesocricetus auratus, UniProt A0A1U8CD06).
T1 construct: hamster-derived β-cells containing G protein-coupled receptor 119 (GPR-119), HIT-T15 cells; host or cells: HIT-T15 (hamster pancreatic β-cells)
T1 sequence (A0A1U8CD06 1-334): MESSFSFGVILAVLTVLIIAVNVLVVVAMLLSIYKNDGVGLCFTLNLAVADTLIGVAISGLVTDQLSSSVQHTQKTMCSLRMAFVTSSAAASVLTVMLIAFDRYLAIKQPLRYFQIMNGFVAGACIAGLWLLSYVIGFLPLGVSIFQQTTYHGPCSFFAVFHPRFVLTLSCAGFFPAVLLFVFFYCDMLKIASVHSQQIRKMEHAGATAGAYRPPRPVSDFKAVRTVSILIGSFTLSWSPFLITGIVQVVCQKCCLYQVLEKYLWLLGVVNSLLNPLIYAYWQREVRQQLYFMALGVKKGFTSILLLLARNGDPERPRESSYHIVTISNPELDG
The test is described as follows: cAMP activity in HIT-T15 cells (cAMP dynamic kit, FRET). In kind it is cell-based, hamster. On the procedure:
To check whether the cyclohexene derivatives according to the present invention activate cyclic adenosine monophosphate (cAMP), experiments were carried out, as follows.
The HIT-T15 cells were plated on a 96-well plate at 60,000 cells per well. On the next day of plating, the cells were treated with a varying concentration of each of the example compounds according to the present invention, and incubated at 37° C. for an hour. In this case, each of the treated compounds was used at six concentrations, ranging from 0.0032 to 10 μM, to treat the cells.
The cyclic adenosine monophosphate (cAMP) activity was measured according to the manufacturer's instruction using a cAMP dynamic kit commercially available from Cis Bio Inc. (Bedford, Mass.). The cells were lysed, and a level of cAMP was determined by a competitive immunoassay using D2-labeled cAMP and a cryptate-labeled anti-cAMP antibody. Fluorescence was read in Flex Station (Molecular Devices). […] Unlabeled cAMP in the cell lysate competed with the D2-labeled cAMP against the cryptate-labeled antibody. Since a decrease in the measured intensity of the FRET signals represents a level of cAMP in the cells, the cAMP activities of the compounds are calculated as a change in FRET signals by adjusting an amount of dimethyl sulfoxide (DMSO).

[1] abbreviates: 1 hour at 37° C., six concentrations 0.0032 to 10 μM, read-out: EC50.

Like-named read-outs stand apart in the source and are kept apart here. Where only a bound is given, the exact number is not on record here.

One may read the EC50 as the concentration giving half of the maximal effect. With `O=C(NCCO)C1CC=C(c2ccc(OCC3CCN(c4ccccn4)CC3)cc2)CC1` (stereo not shown) [Example 358, N-(2-hydroxyethyl)-4-(4-((1-(pyridin-2-yl)piperidin-4-yl)methoxy)phenyl)cyclohex-3-enecarboxamide], the EC50 under setting [1] amounted to 190 nM. As for `CC(C)c1noc(N2CCC(COc3ccc(C4=CCC(C(=O)NC5CCCC5)CC4)cc3F)CC2)n1` (stereo not shown) [Example 365, N-cyclopentyl-4-(3-fluoro-4-((1-(3-isopropyl-1,2,4-oxadiazol-5-yl)piperidin-4-yl)methoxy)phenyl)cyclohex-3-enecarboxamide], the EC50 runs as follows: under setting [1], 38 nM; (Table 2, read-out: EC50 value) at most 50 nM.

Regarding `CC(C)OC(=O)N1CCC(COc2ccc(C3=CCC(C(=O)N4CCOCC4)CC3)cc2F)CC1` (stereo not shown) [Example 444, isopropyl 4-((2-fluoro-4-(4-(morpholine-4-carbonyl)cyclohex-1-enyl)phenoxy)methyl)piperidine-1-carboxylate], the EC50 is, setting by setting: under setting [1], 26 nM; (Table 2, read-out: EC50 value) at most 50 nM. The like results for `CCc1cnc(N2CCC(COc3ccc(C4=CCC(C(=O)N5CCC(F)(F)C5)CC4)c(F)c3)CC2)nc1` (stereo not shown) [Example 454, (3,3-difluoropyrrolidin-1-yl)(4-(4-((1-(5-ethylpyrimidin-2-yl)piperidin-4-yl)methoxy)-2-fluorophenyl)cyclohex-3-enyl)methanone] were, in that order, 15 nM and at most 50 nM. Consider `CCc1cnc(N2CCC(COc3ccc(C4=CCC(C(=O)N5CCN(C(=O)OC(C)(C)C)CC5)CC4)cc3F)CC2)nc1` (stereo not shown) [Example 383, tert-butyl 4-(4-(4-((1-(5-ethylpyrimidin-2-yl)piperidin-4-yl)methoxy)-3-fluorophenyl)cyclohex-3-enecarbonyl)piperazine-1-carboxylate], for which the EC50 under setting [1] was found to be 48 nM and the EC50 (Table 2, read-out: EC50 value) was at most 50 nM.

As to `CCc1cnc(N2CCC(COc3ccc(C4=CCC(C(=O)N5CCC(C#N)CC5)CC4)cc3C(F)(F)F)CC2)nc1` (stereo not shown) [Example 398, 1-(4-(4-((1-(5-ethylpyrimidin-2-yl)piperidin-4-yl)methoxy)-3-(trifluoromethyl)phenyl)cyclohex-3-enecarbonyl)piperidine-4-carbonitrile], under setting [1], the EC50 amounted to 110 nM. For the compound `CCc1cnc(N2CCC(COc3ccc(C4=CCC(C(=O)N5CC(=O)C5)CC4)cc3F)CC2)nc1` (stereo not shown) [Example 295, 1-(4-(4-((1-(5-ethylpyrimidin-2-yl)piperidin-4-yl)methoxy)-3-fluorophenyl)cyclohex-3-enecarbonyl)azetidin-3-one], the half-maximal effective concentration (EC50) under setting [1] came to 43 nM and the EC50 (Table 2, read-out: EC50 value) is at most 50 nM. Take `CCc1cnc(N2CCC(COc3ccc(C4=CCC(C(=O)N5CCC(N6CCCCC6)CC5)CC4)cc3F)CC2)nc1` (stereo not shown) [Example 297, 1,4′-bipiperidin-1′-yl(4-(4-((1-(5-ethylpyrimidin-2-yl)piperidin-4-yl)methoxy)-3-fluorophenyl)cyclohex-3-enyl)methanone]: the EC50 under setting [1] amounted to 120 nM. As for `CCc1cnc(N2CCC(COc3ccc(C4=CCC(C(=O)NCC(C)(C)CO)CC4)cc3)CC2)nc1` (stereo not shown) [Example 177, 4-(4-((1-(5-ethylpyrimidin-2-yl)piperidin-4-yl)methoxy)phenyl)-N-(3-hydroxy-2,2-dimethylpropyl)cyclohex-3-enecarboxamide], the EC50 (Table 2, read-out: EC50 value) was at most 50 nM. As for `CCc1cnc(N2CCC(COc3ccc(C4=CCC(C(=O)N5CCCCC5)CC4)c(F)c3)CC2)nc1` (stereo not shown) [Example 426, (4-(4-((1-(5-ethylpyrimidin-2-yl)piperidin-4-yl)methoxy)-2-fluorophenyl)cyclohex-3-enyl)(piperidin-1-yl)methanone], the EC50 by setting is: under setting [1], 6.7 nM; (Table 2, read-out: EC50 value) at most 50 nM. Turning to `CCc1cnc(N2CCC(COc3ccc(C4=CCC(C(=O)NCCO)CC4)cc3F)CC2)nc1` (stereo not shown) [Example 313, 4-(4-((1-(5-ethylpyrimidin-2-yl)piperidin-4-yl)methoxy)-3-fluorophenyl)-N-(2-hydroxyethyl)cyclohex-3-enecarboxamide], under setting [1], the concentration giving a half-maximal response (EC50) amounted to 120 nM. On to `CCc1cnc(N2CCC(COc3ccc(C4=CCC(C(=O)NCCO)CC4)cc3F)CC2)nc1` (single isomer, unassigned; (-)) [Example 441, (−)-4-(4-((1-(5-ethylpyrimidin-2-yl)piperidin-4-yl)methoxy)-3-fluorophenyl)-N-(2-hydroxyethyl)cyclohex-3-enecarboxamide], for which the EC50 is, setting by setting: under setting [1], 33 nM; (Table 2, read-out: EC50 value) at most 50 nM.

For `O=C(Oc1ccccc1)N1CCC(COc2ccc(C3=CCC(C(=O)N4CCCC4)CC3)cc2F)CC1` (stereo not shown) [Example 403, phenyl 4-((2-fluoro-4-(4-(pyrrolidine-1-carbonyl)cyclohex-1-enyl)phenoxy)methyl)piperidine-1-carboxylate], the EC50 by setting is: under setting [1], 22 nM; (Table 2, read-out: EC50 value) at most 50 nM. For the compound `CCc1cnc(N2CCC(COc3ccc(C4=CCC(C(=O)N(CCO)CCO)CC4)c(F)c3)CC2)nc1` (stereo not shown) [Example 437, 4-(4-((1-(5-ethylpyrimidin-2-yl)piperidin-4-yl)methoxy)-2-fluorophenyl)-N,N-bis(2-hydroxyethyl)cyclohex-3-enecarboxamide], the EC50 is 27 nM under setting [1] and at most 50 nM (Table 2, read-out: EC50 value). `CCc1cnc(N2CCC(COc3ccc(C4=CCC(C(=O)N5CCCC5)CC4)cc3N)CC2)nc1` (stereo not shown) [Example 393, (4-(3-amino-4-((1-(5-ethylpyrimidin-2-yl)piperidin-4-yl)methoxy)phenyl)cyclohex-3-enyl)(pyrrolidin-1-yl)methanone]: under setting [1], the EC50 turned out to be 130 nM. For the compound `CN(CCO)C(=O)C1CC=C(c2ccc(OCC3CCN(C(=O)OC(C)(C)C)CC3)cn2)CC1` (stereo not shown) [Example 341, tert-butyl 4-((6-(4-((2-hydroxyethyl)(methyl)carbamoyl)cyclohex-1-enyl)pyridin-3-yloxy)methyl)piperidine-1-carboxylate], under setting [1], the EC50 came out at 180 nM. `CC(C)c1noc(N2CCC(COc3ccc(C4=CCC(C(=O)N5CCCCC5)CC4)cn3)CC2)n1` (stereo not shown) [Example 316, (4-(6-((1-(3-isopropyl-1,2,4-oxadiazol-5-yl)piperidin-4-yl)methoxy)pyridin-3-yl)cyclohex-3-enyl)(piperidin-1-yl)methanone]: the EC50 is, setting by setting: under setting [1], 37 nM; (Table 2, read-out: EC50 value) at most 50 nM. In the case of `CC(C)c1noc(N2CCC(COc3ccc(C4=CCC(C(=O)N5CCSCC5)CC4)cn3)CC2)n1` (stereo not shown) [Example 318, (4-(6-((1-(3-isopropyl-1,2,4-oxadiazol-5-yl)piperidin-4-yl)methoxy)pyridin-3-yl)cyclohex-3-enyl)(thiomorpholino)methanone], the EC50 by setting is: under setting [1], 38 nM; (Table 2, read-out: EC50 value) at most 50 nM. For `CC(C)(C)OC(=O)N1CCC(COc2ccc(C3=CCC(C(=O)N4CCC(CCO)CC4)CC3)nc2)CC1` (stereo not shown) [Example 326, tert-butyl 4-((6-(4-(4-(2-hydroxyethyl)piperidine-1-carbonyl)cyclohex-1-enyl)pyridin-3-yloxy)methyl)piperidine-1-carboxylate], the EC50 under setting [1] was determined as 70 nM. For `CC(C)c1noc(N2CCC(COc3ccc(C4=CCC(C(=O)N5CCC(N6CCCC6)CC5)CC4)cc3F)CC2)n1` (stereo not shown) [Example 336, (4-(3-fluoro-4-((1-(3-isopropyl-1,2,4-oxadiazol-5-yl)piperidin-4-yl)methoxy)phenyl)cyclohex-3-enyl)(4-(pyrrolidin-1-yl)piperidin-1-yl)methanone], under setting [1], the EC50 amounted to 180 nM. For `CC(C)c1noc(N2CCC(COc3ccc(C4=CCC(C(=O)N5CCC6(CC5)OCCO6)CC4)cc3F)CC2)n1` (stereo not shown) [Example 370, (4-(3-fluoro-4-((1-(3-isopropyl-1,2,4-oxadiazol-5-yl)piperidin-4-yl)methoxy)phenyl)cyclohex-3-enyl)(1,4-dioxa-8-azaspiro[4.5]decan-8-yl)methanone], the EC50 is 15 nM (EC50 (nM), 1 hour at 37° C., six concentrations 0.0032 to 10 μM) and at most 50 nM (EC50 value, Table 2). As to `O=C(OC(CF)CF)N1CCC(COc2ccc(C3=CCC(C(=O)N4CCOCC4)CC3)cc2F)CC1` (stereo not shown) [Example 447, 1,3-difluoropropan-2-yl 4-((2-fluoro-4-(4-(morpholine-4-carbonyl)cyclohex-1-enyl)phenoxy)methyl)piperidine-1-carboxylate], the EC50 under setting [1] came to 62 nM.

`CCc1cnc(N2CCC(COc3ccc(C4=CCC(C(=O)NC5CCCCC5)CC4)cc3F)CC2)nc1` (stereo not shown) [Example 305, N-cyclohexyl-4-(4-((1-(5-ethylpyrimidin-2-yl)piperidin-4-yl)methoxy)-3-fluorophenyl)cyclohex-3-enecarboxamide]: the EC50 under setting [1] worked out at 24 nM and the EC50 (Table 2, read-out: EC50 value) was at most 50 nM.

Regarding `O=C(C1CC=C(c2ccc(OCC3CCN(C(=O)C4(C(F)(F)F)CCCC4)CC3)c(F)c2)CC1)N1CCCC1` (stereo not shown) [Example 409, (4-(3-fluoro-4-((1-(1-(trifluoromethyl)cyclopentanecarbonyl)piperidin-4-yl)methoxy)phenyl)cyclohex-3-enyl)(pyrrolidin-1-yl)methanone], the EC50 under setting [1] was determined as 62 nM.
